*1 amine or outer side, *2 acyl side, *3 side chain or, on linkers, in order; H or OH if unused. Where a SMILES comes first, the peptide text is derived from it. Bridges are numbered along the chain shown (N, C = ends). [ ]: non-standard residue; d: D form. The star is where a group is joined. ξ: configuration not given here. X2 = CC(C)C(NC(=O)CCN1C(=O)C=CC1=O)C(=O)N[C@@H](C)C(=O)Nc1ccc(CN*)cc1; ξTrp(2-yl) = O=C(C(Cc1c([*:3])[nH]c2ccccc12)N[*:1])[*:2]; Ile(4R-OH,5-OH) = C[C@H]([C@H](N)C(=O)O)[C@@H](O)CO; X3 = CC([C@H](N[*:1])C(=O)[*:2])[C@@H](O)CO; X1 = O=C([C@@H]1CC(O)CN1[*:1])[*:2]; ξD = NC(CC(=O)O)C(=O)O; ξC = NC(CS)C(=O)O

Data set [1] can be described thus: reactivity with cysteine in PBS buffer, RP-HPLC C18. The settings on record: 1 mg/mL compound, 10 mg/mL cysteine in PBS, pH 7.4 at 37° C. after 24 h, 48 h and 6 d. It counts as physicochemical. The protocol: 1 mg/ml α-amanitin 10 mg/mL cysteine in PBS, pH 7.4 at 37° C. after 24 h, 48 h and 6 d RP-HPLC C18.
1 mg/mL β-amanitin 10 mg/mL cysteine in PBS, pH 7.4 at 37° C. after 24 h, 48 h and 6 d RP-HPLC […].
1 mg/mL amanin 10 mg/mL cysteine in PBS, pH 7.4 at 37° C. after 24 h, 48 h and 6 d RP-HPLC […].
1 mg/mL HDP 30.2105, 10 mg/mL cysteine in PBS, pH 7.4 at 37° C. after 24 h, 48 h and 6 d RP-HPLC C18; * impurity.

The next data set deals with RNA-polymerase II (Homo sapiens, UniProt P24928). Particulars: complex between amanitin and RNA-polymerase II; cited from earlier work.
In another data set the test system is SKBR-3 cells. Briefly: cytotoxicity assay on SKBR-3 cells after plasma/PBS stressing of ADCs. The settings on record: conjugated to T-D265C, SKBR-3 cells 96 h. The format is cell-based. The protocol: Test items were incubated in human plasma at 37° C. for 0 an 4 days. Cytotoxicity assay were performed on SKBR-3 cells for 96 h.
Test items were incubated in mouse plasma at 37° C. for 0 an 4 days. Cytotoxicity assay were performed on SKBR-3 cells for 96 h.
Test items were incubated in PBS at 37° C. for 0 an 4 days. Cytotoxicity assay were performed on SKBR-3 cells for 96 h. All ADCs show adequate stability to non-enzymatic environment.

The nature of data set [2]: Western-Blot analysis of T-D265C conjugates after incubation in human plasma, mouse plasma and PBS. The settings on record: conjugated to T-D265C antibody; 37° C. in human plasma, mouse plasma and PBS for 0, 4 and 10 days. It counts as in vitro ADME. On the procedure:
Western-Blot analysis of amatoxin derivatives HOP 30.1699, HDP 30.2060 and HDP 30.2115 conjugated to T-D265C antibody after incubation at 37° C. in human plasma, mouse plasma an phosphate buffered saline (PBS) for 0, 4 and 10 days. Detection was done with a polyclonal anti-amanitin antibody from rabbit and an anti-rabbit antibody conjugated to horseradish peroxidase.

With β-Amanitin, in data set [1], the reactivity with cysteine entry is “strong reactivity”.

For the compound amanitin, at RNA-polymerase II, the Kd was 3 nM.

For `CC[C@H](C)[C@@H]1NC(=O)CNC(=O)C2Cc3c([nH]c4ccccc34)SCC(NC(=O)CNC1=O)C(=O)N[C@@H](CC(=O)NCc1ccc(NC(=O)[C@H](C)NC(=O)C(NC(=O)CCN3C(=O)C=CC3=O)C(C)C)cc1)C(=O)N1CC(O)C[C@H]1C(=O)N[C@@H]([C@@H](C)[C@@H](O)CO)C(=O)N2` (stereo partly drawn) [HDP 30.2115] (cyclo(D(X2)[X1][Ile(4R-OH,5-OH)][ξTrp(2-yl)]GIG[ξC]); thioether 4-8), the “cytotoxicity after plasma stressing” value with SKBR-3 cells (human plasma at 37° C. for 0 and 4 days) was “still picomolar activity”; with SKBR-3 cells (mouse plasma at 37° C. for 0 and 4 days) it was “remains almost unchanged”. For the same compound, the “cross-links and loss of the amatoxin moiety (stability)” value in data set [2] was “high stability and significantly reduced cross-links”.

For α-Amanitin, in data set [1], the reactivity with cysteine result is reported as “strong reactivity”.

On to amanin, for which, in data set [1], the reactivity with cysteine result is recorded as “reduced reactivity”.

As to `CC[C@H](C)[C@@H]1NC(=O)CNC(=O)C2Cc3c([nH]c4ccccc34)SCC(NC(=O)CNC1=O)C(=O)NC(CC(=O)O)C(=O)N1CC(O)C[C@H]1C(=O)N[C@@H](C(C)[C@@H](O)CO)C(=O)N2` (some centres unmarked) [HDP 30.2105] (cyclo(GIG[ξC][ξD][X1][X3][ξTrp(2-yl)]); thioether 4-8), the reactivity with cysteine entry in data set [1] is given as “complete absence of reactivity”.

As a reminder, the Kd is the equilibrium constant for the complex coming apart.
